Data published in patent publication US20230364070A1, “PYRROLO[3,2-C]PYRIDIN-4-ONE DERIVATIVES USEFUL IN THE TREATMENT OF CANCER” (Scorpion Therapeutics, Inc., priority 2020, published 2023).
pIC50: −log10 of the molar value.

Tests used:
Format in all cases: cell-based
pEGFR in CUTO14 cells = biological target: T1, pEGFR in CUTO14 cells (Homo sapiens, UniProt P00533, DUP767-769); assay: Inhibitor activity on EGFR phosphorylation (pEGFR AlphaLISA, 2 h), CUTO14 cells
T1 construct: endogenous in cells; host or cells: CUTO14 cells
Protocol: CUTO14 cells were obtained from Dr. Robert C. Doebele at the University of Colorado.
Shake 350 rpm for 1 hr in the dark • 3.4 Prepare donor mix under low light conditions prior to use. Dispense 5 μL of donor mix to all the wells. Mix well on the shaker, seal and wrap in aluminum foil and incubate 1.5 hrs at room temperature in the dark • 3.5 Transfer 18.5 μL mixture to OptiPlate 384, and read using an Envision.

Ba/F3 cells with EGFR WT = biological target: T2, Ba/F3 cells with EGFR WT (Homo sapiens, UniProt P00533); assay: EGFR activity: Ba/F3 cell viability (CellTiter-Glo, 72 h), EGFR WT; conditions: read-out: BaF3 WT IC50
T2 construct: expressed in transfected cells; host or cells: Ba/F3 (murine pro-B cells), retroviral transduction, puromycin selection, maintained with EGF

[1] = biological target: T3, Ba/F3 cells with EGFR exon 20 NPG Ins D770_N771 (Homo sapiens, UniProt P00533, INS770NPG); assay: EGFR activity: Ba/F3 cell viability (CellTiter-Glo, 72 h), EGFR exon 20 NPG insertion; conditions: EGFR exon 20 NPG Ins D770_N771, cell viability, read-out: BaF3 NPG IC50
T3 construct: expressed in transfected cells; host or cells: Ba/F3 (murine pro-B cells), retroviral transduction, puromycin selection, IL3-independent pool

[2] = biological target: T4, Ba/F3 cells with EGFR exon 20 ASV Ins V769_D770 (Homo sapiens, UniProt P00533, INS769ASV); assay: EGFR activity: Ba/F3 cell viability (CellTiter-Glo, 72 h), EGFR exon 20 ASV insertion; conditions: EGFR exon 20 ASV Ins V769_D770, cell viability, read-out: BaF3 ASV IC50
T4 construct: expressed in transfected cells; host or cells: Ba/F3 (murine pro-B cells), retroviral transduction, puromycin selection, IL3-independent pool
T4 sequence (P00533 with tags, fused parts or gaps INS769ASV): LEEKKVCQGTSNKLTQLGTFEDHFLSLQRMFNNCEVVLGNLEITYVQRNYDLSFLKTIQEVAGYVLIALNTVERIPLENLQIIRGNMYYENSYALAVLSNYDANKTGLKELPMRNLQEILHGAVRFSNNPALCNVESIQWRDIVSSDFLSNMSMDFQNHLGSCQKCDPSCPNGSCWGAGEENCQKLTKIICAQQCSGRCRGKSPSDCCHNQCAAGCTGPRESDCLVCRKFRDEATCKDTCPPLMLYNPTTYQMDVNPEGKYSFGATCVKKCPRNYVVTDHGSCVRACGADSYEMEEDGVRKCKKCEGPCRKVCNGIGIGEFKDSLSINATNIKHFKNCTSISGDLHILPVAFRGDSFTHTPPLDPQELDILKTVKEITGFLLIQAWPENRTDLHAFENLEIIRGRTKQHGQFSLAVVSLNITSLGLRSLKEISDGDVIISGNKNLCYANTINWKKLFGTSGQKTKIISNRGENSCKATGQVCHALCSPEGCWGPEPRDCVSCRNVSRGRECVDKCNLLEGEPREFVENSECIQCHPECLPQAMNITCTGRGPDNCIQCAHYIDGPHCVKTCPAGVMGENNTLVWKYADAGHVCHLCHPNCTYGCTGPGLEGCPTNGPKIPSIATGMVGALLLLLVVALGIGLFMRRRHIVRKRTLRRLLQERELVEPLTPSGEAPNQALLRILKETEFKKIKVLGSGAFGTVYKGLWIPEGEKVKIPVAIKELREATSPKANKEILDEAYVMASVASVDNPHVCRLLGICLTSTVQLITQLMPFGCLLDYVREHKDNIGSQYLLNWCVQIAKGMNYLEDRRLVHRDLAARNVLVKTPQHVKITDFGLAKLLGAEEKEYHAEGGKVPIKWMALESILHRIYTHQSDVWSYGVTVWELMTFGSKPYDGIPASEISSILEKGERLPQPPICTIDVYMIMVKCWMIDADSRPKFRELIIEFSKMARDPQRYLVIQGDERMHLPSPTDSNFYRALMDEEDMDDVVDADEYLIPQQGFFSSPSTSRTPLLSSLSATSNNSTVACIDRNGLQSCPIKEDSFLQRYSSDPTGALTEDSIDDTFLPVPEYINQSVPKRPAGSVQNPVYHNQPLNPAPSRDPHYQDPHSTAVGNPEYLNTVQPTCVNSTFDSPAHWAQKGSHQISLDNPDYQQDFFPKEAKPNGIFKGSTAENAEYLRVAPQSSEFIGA

T2 sequence (P00533 25-1210): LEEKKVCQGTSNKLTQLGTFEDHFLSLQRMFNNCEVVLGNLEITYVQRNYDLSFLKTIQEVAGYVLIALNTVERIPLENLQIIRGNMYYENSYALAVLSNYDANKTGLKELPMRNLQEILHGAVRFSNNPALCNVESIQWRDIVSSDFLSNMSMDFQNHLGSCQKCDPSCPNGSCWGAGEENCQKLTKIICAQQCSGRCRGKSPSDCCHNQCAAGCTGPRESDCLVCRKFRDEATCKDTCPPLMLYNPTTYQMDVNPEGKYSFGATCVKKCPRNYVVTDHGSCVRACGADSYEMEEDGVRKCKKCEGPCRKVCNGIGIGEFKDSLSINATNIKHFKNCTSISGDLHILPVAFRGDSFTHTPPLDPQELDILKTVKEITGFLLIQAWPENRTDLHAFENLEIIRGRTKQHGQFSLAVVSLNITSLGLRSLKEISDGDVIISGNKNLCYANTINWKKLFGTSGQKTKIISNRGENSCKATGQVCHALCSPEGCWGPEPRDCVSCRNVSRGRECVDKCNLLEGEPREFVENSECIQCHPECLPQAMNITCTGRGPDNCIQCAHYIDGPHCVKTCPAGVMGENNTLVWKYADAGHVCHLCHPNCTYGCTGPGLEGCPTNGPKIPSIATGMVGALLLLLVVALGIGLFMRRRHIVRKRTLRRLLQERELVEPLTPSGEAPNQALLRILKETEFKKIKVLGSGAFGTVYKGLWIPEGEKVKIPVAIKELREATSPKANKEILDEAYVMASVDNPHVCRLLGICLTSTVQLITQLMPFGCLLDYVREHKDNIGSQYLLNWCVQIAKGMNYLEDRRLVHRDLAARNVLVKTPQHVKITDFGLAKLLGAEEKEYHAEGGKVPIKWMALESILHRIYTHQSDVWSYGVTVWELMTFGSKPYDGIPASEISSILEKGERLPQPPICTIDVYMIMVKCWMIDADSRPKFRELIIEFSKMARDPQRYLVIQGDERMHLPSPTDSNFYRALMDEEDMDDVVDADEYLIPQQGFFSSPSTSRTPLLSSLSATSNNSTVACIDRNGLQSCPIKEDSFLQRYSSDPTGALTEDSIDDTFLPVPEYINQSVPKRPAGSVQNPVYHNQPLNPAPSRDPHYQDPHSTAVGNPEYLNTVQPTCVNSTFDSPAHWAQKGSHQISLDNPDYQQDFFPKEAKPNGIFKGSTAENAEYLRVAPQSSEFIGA
T1 sequence (P00533 with tags, fused parts or gaps DUP767-769): as the sequence (P00533 with tags, fused parts or gaps INS769ASV) above
T3 sequence (P00533 with tags, fused parts or gaps INS770NPG): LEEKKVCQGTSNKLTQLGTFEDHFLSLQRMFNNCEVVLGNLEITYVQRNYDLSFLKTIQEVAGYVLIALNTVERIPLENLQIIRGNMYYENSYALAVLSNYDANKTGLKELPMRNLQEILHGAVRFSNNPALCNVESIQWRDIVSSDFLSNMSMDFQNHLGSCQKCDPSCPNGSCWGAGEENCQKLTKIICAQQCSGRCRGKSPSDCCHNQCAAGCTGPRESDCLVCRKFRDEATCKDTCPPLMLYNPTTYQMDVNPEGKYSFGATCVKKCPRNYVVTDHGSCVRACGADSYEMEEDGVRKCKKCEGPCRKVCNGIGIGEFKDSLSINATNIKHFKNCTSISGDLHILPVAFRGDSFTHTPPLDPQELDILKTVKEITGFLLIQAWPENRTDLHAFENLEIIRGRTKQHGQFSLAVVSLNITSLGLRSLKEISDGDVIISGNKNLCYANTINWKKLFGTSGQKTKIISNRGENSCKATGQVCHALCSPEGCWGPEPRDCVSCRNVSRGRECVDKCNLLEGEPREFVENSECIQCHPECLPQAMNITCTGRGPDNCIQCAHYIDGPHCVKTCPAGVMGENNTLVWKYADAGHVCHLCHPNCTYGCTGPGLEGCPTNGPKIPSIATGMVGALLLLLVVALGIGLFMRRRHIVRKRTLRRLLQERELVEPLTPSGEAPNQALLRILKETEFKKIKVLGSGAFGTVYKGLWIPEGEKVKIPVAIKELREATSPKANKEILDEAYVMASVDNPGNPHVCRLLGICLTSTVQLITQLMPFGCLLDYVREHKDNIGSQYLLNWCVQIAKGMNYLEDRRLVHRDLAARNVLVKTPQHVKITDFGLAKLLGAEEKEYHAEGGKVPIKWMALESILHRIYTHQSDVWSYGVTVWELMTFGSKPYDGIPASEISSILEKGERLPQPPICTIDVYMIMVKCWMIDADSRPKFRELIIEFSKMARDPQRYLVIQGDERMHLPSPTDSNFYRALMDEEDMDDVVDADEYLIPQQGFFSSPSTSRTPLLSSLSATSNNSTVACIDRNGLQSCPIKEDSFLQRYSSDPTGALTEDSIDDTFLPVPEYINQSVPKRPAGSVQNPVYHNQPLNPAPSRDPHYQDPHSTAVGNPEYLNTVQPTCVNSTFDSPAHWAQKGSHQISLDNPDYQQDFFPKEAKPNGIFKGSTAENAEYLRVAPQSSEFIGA

SMILES | pIC50 (pEGFR in CUTO14 cells) | pIC50 (Ba/F3 cells with EGFR WT) | pIC50 [1] | pIC50 [2]
C=CC(=O)N1CCOC[C@H]1COc1cnccc1-c1[nH]c2c(c1Nc1cccc(F)c1OC)C(=O)NCC2 [compound 190] | > 7.00 | 6.00 to 7.00 | > 7.00 | > 7.00
C=CC(=O)N1[C@H]2CC[C@H](C2)[C@@H]1C#Cc1cnccc1-c1[nH]c2c(c1Nc1cccc(Cl)c1OC)C(=O)NCC2 [compound 236, 3-[(3-chloro-2-methoxyphenyl)amino]-2-(3-{2-[(1S,3R,4R)-2-(prop-2-enoyl)-2-azabicyclo[2.2.1]heptan-3-yl]ethynyl}pyridin-4-yl)-1H,5H,6H,7H-pyrrolo[3,2-c]pyridin-4-one] | > 7.00 | 6.00 to 7.00 | > 7.00 | > 7.00
C=CC(=O)N1[C@H](C#Cc2cnccc2-c2[nH]c3c(c2Nc2cccc(Cl)c2OC)C(=O)NCC3)CC[C@@H]1C [compound 240, 3-[(3-chloro-2-methoxyphenyl)amino]-2-(3-{2-[(2S,5S)-5-methyl-1-(prop-2-enoyl)pyrrolidin-2-yl]ethynyl}pyridin-4-yl)-1H,5H,6H,7H-pyrrolo[3,2-c]pyridin-4-one] | > 7.00 | > 7.00 | > 7.00 | > 7.00
C=CC(=O)N1[C@H]2CC[C@H](C2)[C@@H]1C#Cc1cnccc1-c1[nH]c2c(c1Nc1cccc(F)c1OC)C(=O)NCC2 [compound 252, 3-[(3-fluoro-2-methoxyphenyl)amino]-2-(3-{2-[(1S,3R,4R)-2-(prop-2-enoyl)-2-azabicyclo[2.2.1]heptan-3-yl]ethynyl}pyridin-4-yl)-1H,5H,6H,7H-pyrrolo[3,2-c]pyridin-4-one] | > 7.00 | 6.00 to 7.00 | > 7.00 | > 7.00
C=CC(=O)N1[C@H](C#Cc2cnccc2-c2[nH]c3c(c2Nc2cccc(F)c2OC)C(=O)NCC3)CC[C@@H]1C [compound 255, 3-[(3-fluoro-2-methoxyphenyl)amino]-2-(3-{2-[(2S,5S)-5-methyl-1-(prop-2-enoyl)pyrrolidin-2-yl]ethynyl}pyridin-4-yl)-1H,5H,6H,7H-pyrrolo[3,2-c]pyridin-4-one] | > 7.00 | > 7.00 | > 7.00 | > 7.00
CC#CC(=O)N1CC[C@@H]1COc1cnccc1-c1[nH]c2c(c1Nc1cccc(F)c1OC)C(=O)NCC2 [compound 289, 2-(3-{[(2R)-1-(but-2-ynoyl)azetidin-2-yl]methoxy}pyridin-4-yl)-3-[(3-fluoro-2-methoxyphenyl)amino]-1H,5H,6H,7H-pyrrolo[3,2-c]pyridin-4-one] | > 7.00 | – | – | –
CC#CC(=O)N1CCC[C@]1(C)C#Cc1cnccc1-c1[nH]c2c(c1Nc1cccc(F)c1OC)C(=O)NCC2 [compound 291, 2-(3-{2-[(2R)-1-(but-2-ynoyl)-2-methylpyrrolidin-2-yl]ethynyl}pyridin-4-yl)-3-[(3-fluoro-2-methoxyphenyl)amino]-1H,5H,6H,7H-pyrrolo[3,2-c]pyridin-4-one] | > 7.00 | – | – | –
C=C(F)C(=O)N1CC[C@H]1COc1cnccc1-c1[nH]c2c(c1Nc1cccc(F)c1OC)C(=O)NCC2 [compound 296, 3-[(3-fluoro-2-methoxyphenyl)amino]-2-(3-{[(2S)-1-(2-fluoroprop-2-enoyl)azetidin-2-yl]methoxy}pyridin-4-yl)-1H,5H,6H,7H-pyrrolo[3,2-c]pyridin-4-one] | > 7.00 | – | – | –
CC#CC(=O)NC(C)(C)C#Cc1cnccc1-c1[nH]c2c(c1Nc1cccc(F)c1OC)C(=O)NCC2 [compound 302, N-[4-(4-{3-[(3-fluoro-2-methoxyphenyl)amino]-4-oxo-1H,5H,6H,7H-pyrrolo[3,2-c]pyridin-2-yl}pyridin-3-yl)-2-methylbut-3-yn-2-yl]but-2-ynamide] | > 7.00 | – | – | –
C=CC(=O)N1CC2CC1(C#Cc1cnccc1-c1[nH]c3c(c1Nc1cccc(F)c1OC)C(=O)NCC3)C2 [compound 318, 3-[(3-fluoro-2-methoxyphenyl)amino]-2-(3-{2-[2-(prop-2-enoyl)-2-azabicyclo[2.1.1]hexan-1-yl]ethynyl}pyridin-4-yl)-1H,5H,6H,7H-pyrrolo[3,2-c]pyridin-4-one] | > 7.00 | – | – | –
C=CC(=O)N1C(C)CC1COc1cnccc1-c1[nH]c2c(c1Nc1cccc(F)c1OC)C(=O)NCC2 (centres unmarked) [compound 333] | > 7.00 | – | – | –
COc1c(F)cccc1Nc1c(-c2ccncc2C#C[C@@]2(C)CCCN2C(=O)/C=C/CN(C)C)[nH]c2c1C(=O)NCC2 [compound 335, 2-(3-{2-[(2R)-1-[(2E)-4-(dimethylamino)but-2-enoyl]-2-methylpyrrolidin-2-yl]ethynyl}pyridin-4-yl)-3-[(3-fluoro-2-methoxyphenyl)amino]-1H,5H,6H,7H-pyrrolo[3,2-c]pyridin-4-one] | > 7.00 | – | – | –
COc1c(F)cccc1Nc1c(-c2ccncc2C#C[C@H]2CC(C)(C)CN2C(=O)/C=C/CN(C)C)[nH]c2c1C(=O)NCC2 [compound 344, 2-(3-{2-[(2R)-1-[(2E)-4-(dimethylamino)but-2-enoyl]-4,4-dimethylpyrrolidin-2-yl]ethynyl}pyridin-4-yl)-3-[(3-fluoro-2-methoxyphenyl)amino]-1H,5H,6H,7H-pyrrolo[3,2-c]pyridin-4-one] | > 7.00 | – | – | –
COc1c(F)cccc1Nc1c(-c2ccncc2C#C[C@H]2C[C@@H]3C[C@@H]3N2C(=O)/C=C/CN(C)C)[nH]c2c1C(=O)NCC2 [compound 345, 2-(3-{2-[(1S,3R,5S)-2-[(2E)-4-(dimethylamino)but-2-enoyl]-2-azabicyclo[3.1.0]hexan-3-yl]ethynyl}pyridin-4-yl)-3-[(3-fluoro-2-methoxyphenyl)amino]-1H,5H,6H,7H-pyrrolo[3,2-c]pyridin-4-one] | > 7.00 | – | – | –
CC#CC(=O)N1CC[C@@H]1COc1cnccc1-c1[nH]c2c(c1Nc1cccc(Cl)c1CC)C(=O)NCC2 [compound 348, 2-(3-{[(2R)-1-(but-2-ynoyl)azetidin-2-yl]methoxy}pyridin-4-yl)-3-[(3-chloro-2-ethylphenyl)amino]-1H,5H,6H,7H-pyrrolo[3,2-c]pyridin-4-one] | > 7.00 | – | – | –
COc1c(Cl)cccc1Nc1c(-c2ccncc2C#C[C@@]2(C)CCCN2C(=O)/C=C/CN(C)C)[nH]c2c1C(=O)NCC2 [compound 362, 3-[(3-chloro-2-methoxyphenyl)amino]-2-(3-{2-[(2R)-1-[(2E)-4-(dimethylamino)but-2-enoyl]-2-methylpyrrolidin-2-yl]ethynyl}pyridin-4-yl)-1H,5H,6H,7H-pyrrolo[3,2-c]pyridin-4-one] | > 7.00 | – | – | –
C=C(F)C(=O)N1CC[C@H]1COc1cnccc1-c1[nH]c2c(c1Nc1cccc(Cl)c1OC)C(=O)NCC2 [compound 363, 3-[(3-chloro-2-methoxyphenyl)amino]-2-(3-{[(2S)-1-(2-fluoroprop-2-enoyl)azetidin-2-yl]methoxy}pyridin-4-yl)-1H,5H,6H,7H-pyrrolo[3,2-c]pyridin-4-one] | > 7.00 | – | – | –
C=CC(=O)N[C@@H](C)C#Cc1cnccc1-c1[nH]c2c(c1Nc1cccc(F)c1OC)C(=O)NCC2 [compound 375, N-[(2S)-4-(4-{3-[(3-fluoro-2-methoxyphenyl)amino]-4-oxo-1H,5H,6H,7H-pyrrolo[3,2-c]pyridin-2-yl}pyridin-3-yl)but-3-yn-2-yl]prop-2-enamide] | > 7.00 | – | – | –
C=CC(=O)N[C@@H](C)C#Cc1cnccc1-c1[nH]c2c(c1Nc1cccc(Cl)c1OC)C(=O)NCC2 [compound 376, N-[(2S)-4-(4-{3-[(3-chloro-2-methoxyphenyl)amino]-4-oxo-1H,5H,6H,7H-pyrrolo[3,2-c]pyridin-2-yl}pyridin-3-yl)but-3-yn-2-yl]prop-2-enamide] | > 7.00 | – | – | –
COc1c(Cl)cccc1Nc1c(-c2ccncc2C#C[C@H]2C[C@@H]3C[C@@H]3N2C(=O)/C=C/CN(C)C)[nH]c2c1C(=O)NCC2 [compound 466, 3-[(3-chloro-2-methoxyphenyl)amino]-2-(3-{2-[(1S,3R,5S)-2-[(2E)-4-(dimethylamino)but-2-enoyl]-2-azabicyclo[3.1.0]hexan-3-yl]ethynyl}pyridin-4-yl)-1H,5H,6H,7H-pyrrolo[3,2-c]pyridin-4-one] | > 7.00 | – | – | –
C=CC(=O)N1CC(C)(C)[C@H]1COc1cnccc1-c1[nH]c2c(c1Nc1cccc(Cl)c1OC)C(=O)NCC2 [compound 512, 3-[(3-chloro-2-methoxyphenyl)amino]-2-(3-{[(2S)-3,3-dimethyl-1-(prop-2-enoyl)azetidin-2-yl]methoxy}pyridin-4-yl)-1H,5H,6H,7H-pyrrolo[3,2-c]pyridin-4-one] | > 7.00 | – | – | –
C=CC(=O)N1CC[C@@]1(C)C#Cc1cnccc1-c1[nH]c2c(c1Nc1cccc(Cl)c1OC)C(=O)NCC2 [compound 550, 3-[(3-chloro-2-methoxyphenyl)amino]-2-(3-{2-[(2S)-2-methyl-1-(prop-2-enoyl)azetidin-2-yl]ethynyl}pyridin-4-yl)-1H,5H,6H,7H-pyrrolo[3,2-c]pyridin-4-one] | < 6.00 | – | – | –
C=CC(=O)N1CC[C@]1(C)C#Cc1cnccc1-c1[nH]c2c(c1Nc1cccc(Cl)c1OC)C(=O)NCC2 [compound 551, 3-[(3-chloro-2-methoxyphenyl)amino]-2-(3-{2-[(2R)-2-methyl-1-(prop-2-enoyl)azetidin-2-yl]ethynyl}pyridin-4-yl)-1H,5H,6H,7H-pyrrolo[3,2-c]pyridin-4-one] | < 6.00 | – | – | –
